The supplement of paper PMC8633005

How the values were obtained:
Test in all cases: drug sensitivity score (DSS) (DSS (unitless, 0-50 scale)); higher = more sensitive (stronger viability inhibition); extreme values may be limits of the assay
Conditions in all cases: 72 h; culture: 2D
Bowes = system: Bowes
Method in brief: (§1)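 Drug sensitivity scores, modified area-under-curve measures, were derived from dose-response curves fitted in the in-house Breeze software. The curves came from melanoma cell lines and patient-derived melanoma cultures (1000–1500 cells per well) grown in 2D in 384-well plates holding a 527-compound oncology library. Each compound was dissolved in DMSO or water and tested at five concentrations across a 10,000-fold range. Viability was read by CellTiter-Glo luminescence after 72 h at 37 °C.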

FM-MEL-2 = system: FM-MEL-2
Method in brief: as §1

FM-MEL-3 = system: FM-MEL-3
Method in brief: as §1

FM-MEL-6 = system: FM-MEL-6
Method in brief: as §1

SK-MEL-28 = system: SK-MEL-28
Method in brief: as §1

SK-MEL-2 = system: SK-MEL-2
Method in brief: as §1

WM165 = system: WM165
Method in brief: as §1

WM852 = system: WM852
Method in brief: as §1

SMILES | drug sensitivity score (Bowes) | drug sensitivity score (FM-MEL-2) | drug sensitivity score (FM-MEL-3) | drug sensitivity score (FM-MEL-6) | drug sensitivity score (SK-MEL-28) | drug sensitivity score (SK-MEL-2) | drug sensitivity score (WM165) | drug sensitivity score (WM852)
COc1ccccc1S(=O)(=O)Nc1ccc2c(c1)CN(C)C(=O)N2 [PFI-1] | 4 | 4.7 | 6 | 4.1 | 2.8 | 0.1 | 6.2 | 0.1
COc1cccc2c1C(=O)c1c(O)c3c(c(O)c1C2=O)C[C@@](O)(C(=O)CO)C[C@@H]3O[C@H]1C[C@H](N)[C@@H](O)[C@H](C)O1 [Epirubicin] | 4 | 6 | 7.6 | 8.6 | 7.4 | 5.3 | 14.3 | 4.6
Nc1ccn([C@@H]2O[C@H](CO)[C@@H](O)C2(F)F)c(=O)n1 [Gemcitabine] | 0 | 4.3 | 8.6 | 10.3 | 13.7 | 6.3 | 18.9 | 0
COc1cc(Br)c(Nc2nc(-c3c(C)nc4ncccn34)cs2)c(Br)c1 [PTC-209] | 13.7 | 5.1 | 11.2 | 5 | 4.6 | 4.2 | 12.4 | 7.6
CC1=C(/C=C/C(C)=C/C=C/C(C)=C/C(=O)O)C(C)(C)CCC1 [Tretinoin] | 5.7 | 0 | 0.7 | 0.8 | 0 | 0 | 0 | 0
C=CC(=O)Nc1cc(Nc2nccc(-c3cn(C)c4ccccc34)n2)c(OC)cc1N(C)CCN(C)C [Osimertinib] | 2.7 | 3.2 | 2.7 | 4.6 | 4 | 3.4 | 4.3 | 3.5
C[C@H]1O[C@@H](O[C@H]2[C@@H](O)C[C@H](O[C@H]3[C@@H](O)C[C@H](O[C@H]4CC[C@@]5(C)[C@H](CC[C@@H]6[C@@H]5C[C@@H](O)[C@]5(C)[C@@H](C7=CC(=O)OC7)CC[C@]65O)C4)O[C@@H]3C)O[C@@H]2C)C[C@H](O)[C@@H]1O [Digoxin] | 12.9 | 3.3 | 13.3 | 9.7 | 6.6 | 5.9 | 10.6 | 10.4
O=C(Nc1cccc(Nc2ncc(Br)c(NCCc3cnc[nH]3)n2)c1)N1CCCC1 [BX-912] | 5.6 | 5.9 | 0.9 | 0.5 | 1.9 | 0 | 8.2 | 1.9
NC1(c2ccc(-c3nc4ccn5c(=O)[nH]nc5c4cc3-c3ccccc3)cc2)CCC1 [MK-2206] | 0 | 2.6 | 0.9 | 1.9 | 2 | 0 | 1.1 | 0.4
COCC1(CO)C(=O)C2CCN1CC2 (stereo not drawn) [APR-246] | 0 | 0 | 0 | 0 | 0 | 0 | 0 | 0
Nc1cc(F)ccc1NC(=O)c1ccc(CNC(=O)/C=C/c2cccnc2)cc1 [Tucidinostat] | 1.9 | 5.1 | 7.7 | 7.2 | 5.6 | 5 | 7.8 | 0
O=S(=O)(c1cccc2c(O)nccc12)N1CCCNCC1 [Hydroxyfasudil] | 0 | 0 | 0 | 1.8 | 0 | 0 | 0 | 0
CNS(=O)(=O)Nc1nccc(Cc2c(C)c3ccc(Oc4ncccn4)cc3oc2=O)c1F | 0.6 | 6.3 | 10.7 | 0.2 | 3.2 | 4.2 | 3.2 | 0
COCCNCc1ccc(-c2cc3nccc(Oc4ccc(NC(=O)C5(C(=O)Nc6ccc(F)cc6)CC5)cc4F)c3s2)nc1 [Sitravatinib] | 0.6 | 2 | 2.6 | 2.4 | 2.3 | 0 | 2.1 | 1.9
CC(O)c1cc(C(=O)N[C@@H](C)Cn2ccc(-c3ccc(C#N)c(Cl)c3)n2)n[nH]1 (stereo partly drawn) [ODM-201] | 1.3 | 0 | 2.8 | 1.1 | 0 | 0 | 0 | 0.2
C/C(=C\c1csc(C)n1)[C@@H]1C[C@@H]2O[C@]2(C)CCC[C@H](C)[C@H](O)[C@@H](C)C(=O)C(C)(C)[C@@H](O)CC(=O)N1 [Ixabepilone] | 8.5 | 0.8 | 5 | 3.7 | 2.3 | 2.9 | 3.6 | 6.1
CC(C)(C)c1nc(-c2cccc(NS(=O)(=O)c3c(F)cccc3F)c2F)c(-c2ccnc(N)n2)s1 [Dabrafenib] | 1.1 | 1.5 | 2.7 | 0 | 20.5 | 0.9 | 18.1 | 1.1
Cc1c(N)nc([C@H](CC(N)=O)NC[C@H](N)C(N)=O)nc1C(=O)N[C@H](C(=O)N[C@H](C)[C@@H](O)[C@H](C)C(=O)N[C@H](C(=O)NCCc1nc(-c2nc(C(=O)NCCC[S+](C)C)cs2)cs1)[C@@H](C)O)[C@@H](OC1OC(CO)C(O)C(O)C1OC1OC(CO)C(O)C(OC(N)=O)C1O)c1cnc[nH]1 (stereo partly drawn) [Bleomycin] | 0.9 | 2.4 | 5 | 2.1 | 1.8 | 0 | 9.4 | 0
CCS(=O)(=O)N1CCN(c2ccc(Nc3ncc(C(N)=O)c(NC4CC4)n3)cc2)CC1 [Cerdulatinib] | 0.8 | 0 | 0 | 0.1 | 0 | 0 | 4.6 | 4
NS(=O)(=O)OC[C@@H]1C[C@@H](n2ccc3c(N[C@H]4CCc5ccccc54)ncnc32)C[C@@H]1O [Pevonedistat] | 10.9 | 6.2 | 12.4 | 7.8 | 7 | 11.7 | 20 | 11.7
O=C(O)c1ccc2c(c1)nc(Nc1cccc(Cl)c1)c1ccncc12 [Silmitasertib] | 3.3 | 3.2 | 9.2 | 3.4 | 2.3 | 2.7 | 7.3 | 2.4
